In patent US10815238B2, “Antimicrobial compounds and methods of making and using the same” (BIOVERSYS AG, priority 2013, dated 2020):

Experiments:
[1] = test system: Eschericia coli (E. coli) strain ATCC25922; assay: Standard microdilution assay, MIC against E. coli ATCC25922; format: cell-based; conditions: Escherichia coli; E. coli strain ATCC25922, standard microdilution assay; cutoff 16 micrograms/mL; read-out: MIC E. Coli
In short: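 Scoring as + or − used a 16 micrograms/mL cutoff on minimum inhibitory concentrations. These came from CLSI-standard microdilution, quality-controlled with reference strains tested in the same run.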

[2] = test system: Staphylococcus aureus (S. aureus) 11540 strain; assay: Standard microdilution assay, MIC against S. aureus 11540; format: cell-based; conditions: S. aureus 11540 strain, standard microdilution assay, cutoff 16 micrograms/mL, read-out: MIC S. aureus
Description: The in vitro activity of the compounds of the present invention can be determined. Antimicrobial testing is typically performed to determine the minimum inhibitory concentration (MIC). Minimum inhibitory concentrations (MICs) are determined by the microdilution method in a final volume of 100 μl according to protocols outlined by The Clinical and Laboratory Standards Institute (CLSI). Performance standards for reference strains are assessed within the same experimental design to maintain quality control. See, for example, Clinical Laboratory Standards Institute: Methods for dilution antimicrobial susceptibility tests for bacteria that grow aerobically M7-A8. Approved Standard-Eighth Edition. Wayne, Pa.: CLSI; December 2008; and Clinical Laboratory Standards Institute: Performance Standards for Antimicrobial Susceptibility Testing M100-S20; Approved Standard-Twentieth Edition. Wayne, Pa.: CLSI; June 2010.
The compounds of the present invention were tested for antimicrobial activity. The Compounds 1-582 were run against Eschericia coli (E. coli) strain ATCC25922 and Compounds 320-582 were run against Staphylococcus aureus (S. aureus) 11540 strain using a standard microdilution assay to determine minimum inhibitory concentrations (MICs). […] It will be recognized by one skilled in the art that the compounds can be assessed against other bacterial organisms and that the presentation of data for activity against Eschericia coli and Staphylococcus aureus are illustrative and in no way is intended to limit the scope of the present invention. The compounds of the present invention can be assayed against a range of other microorganisms depending upon the performance activity desired to be gathered. Furthermore, the “+” and “−” representation and the selection of a cutoff value of 16 micrograms/mL is also illustrative and in no way is intended to limit the scope of the present invention.

For C[C@H](N)CCCc1cc(Cl)c(F)c(-c2cc3cn(-c4ccc(CN[C@@H](C)C[C@@H](CCO)NC(=N)N)cc4)c(=O)nc3[nH]2)c1 [Compound 359], which MIC [1] is on record?
The MIC was less than 16 µg/mL.

What about the MIC [2] of the same molecule?
Its MIC is less than 16 µg/mL.

Which results are given for C[C@H](N)CCCc1cc(Cl)c(F)c(-c2cc3cn(-c4ccc(CN[C@@H](C)C[C@H](CCO)NC(=N)N)cc4)c(=O)nc3[nH]2)c1 [Compound 360]?
MIC [1]: < 16 µg/mL; MIC [2]: < 16 µg/mL

C[C@H](N)CCCc1cc(OC(F)(F)F)c(F)c(-c2cc3cn(-c4ccc(CN[C@@H](C)C[C@H](CCO)NC(=N)N)cc4)c(=O)nc3[nH]2)c1 [Compound 361] was tested. Which MIC [1] did it give?
The MIC was less than 16 µg/mL.

What about the MIC [2] of the same molecule?
The MIC was less than 16 µg/mL.

For COC(=O)[C@H](CCNC(=N)N)N[C@@H](C)c1ccc(-n2cc3cc(-c4cc(CCC[C@H](C)N)cc(OC(F)(F)F)c4F)[nH]c3nc2=O)cc1 [Compound 362], which MIC [1] is on record?
The MIC was less than 16 µg/mL.

And the MIC [2]?
Its MIC is less than 16 µg/mL.

Which MIC [1] does the source give for C[C@H](N)CCCc1cc(Cl)c(F)c(-c2cc3cn(-c4ccc([C@H](C)N[C@@H](CCNC(=N)N)C(N)=O)cc4)c(=O)nc3[nH]2)c1 [Compound 363] here?
The MIC was less than 16 µg/mL.

And the MIC [2]?
The MIC was less than 16 µg/mL.

Which MIC [1] does the source give for C[C@H](N)CCCc1cc(OC(F)(F)F)c(F)c(-c2cc3cn(-c4ccc([C@H](C)N[C@@H](CCNC(=N)N)C(=O)O)cc4)c(=O)nc3[nH]2)c1 [Compound 364] here?
Its MIC is greater than 16 µg/mL.

And the MIC [2]?
Its MIC is greater than 16 µg/mL.

For C[C@H](N)CCCc1cc(Cl)c(F)c(-c2cc3cn(-c4ccc([C@H](C)NCC[C@@H](CSc5nccs5)NC(=N)N)cc4)c(=O)nc3[nH]2)c1 [Compound 365], which MIC [1] is on record?
Its MIC is less than 16 µg/mL.

What about the MIC [2] of the same molecule?
The MIC was less than 16 µg/mL.

Which results are given for C[C@H](N)CCCc1cc(OC(F)(F)F)c(F)c(-c2cc3cn(-c4ccc([C@H](C)N[C@H](CO)CCNC(=N)N)cc4)c(=O)nc3[nH]2)c1 [Compound 366]?
MIC [1]: < 16 µg/mL; MIC [2]: < 16 µg/mL

For C[C@H](N)CCCc1cc(Cl)c(F)c(-c2cc3cn(-c4ccc([C@H](C)N[C@H](CO)CCNC(=N)N)cc4)c(=O)nc3[nH]2)c1 [Compound 367], which MIC [1] is on record?
The MIC was less than 16 µg/mL.

And the MIC [2]?
Its MIC is less than 16 µg/mL.

Which MIC [1] does the source give for C[C@H](N)CCCc1cc(Cl)c(F)c(-c2cc3cn(-c4ccc([C@H](C)NCC[C@H](CNC(=O)CN)NC(=N)N)cc4)c(=O)nc3[nH]2)c1 [Compound 368] here?
Its MIC is less than 16 µg/mL.

And the MIC [2]?
The MIC was less than 16 µg/mL.

Which results are given for C[C@H](N)CCCc1cc(OC(F)(F)F)c(F)c(-c2cc3cn(-c4ccc([C@H](C)NCC[C@H](CNC(=O)CN)NC(=N)N)cc4)c(=O)nc3[nH]2)c1 [Compound 369]?
MIC [1]: < 16 µg/mL; MIC [2]: < 16 µg/mL

Which MIC [1] does the source give for C[C@@H](N)CCCc1cc(Cl)c(F)c(-c2cc3cn(-c4ccc([C@@H](C)NCCCNC(=N)N)cc4)c(=O)nc3[nH]2)c1 [Compound 370] here?
The MIC was less than 16 µg/mL.

What about the MIC [2] of the same molecule?
The MIC was less than 16 µg/mL.

C=C[C@H](C[C@@H](C)NCc1ccc(-n2cc3cc(-c4cc(CCC[C@H](C)N)cc(Cl)c4F)[nH]c3nc2=O)cc1)NC(=N)N [Compound 371] was tested. Which MIC [1] did it give?
The MIC was less than 16 µg/mL.

What about the MIC [2] of the same molecule?
Its MIC is less than 16 µg/mL.

What does the source list for C=C[C@H](C[C@@H](C)NCc1ccc(-n2cc3cc(-c4cc(CCC[C@H](C)N)cc(OC(F)(F)F)c4F)[nH]c3nc2=O)cc1)NC(=N)N [Compound 372]?
MIC [1]: < 16 µg/mL; MIC [2]: < 16 µg/mL

For C=C[C@@H](C[C@@H](C)NCc1ccc(-n2cc3cc(-c4cc(CCC[C@H](C)N)cc(Cl)c4F)[nH]c3nc2=O)cc1)NC(=N)N [Compound 373], which MIC [1] is on record?
The MIC was less than 16 µg/mL.

And the MIC [2]?
Its MIC is less than 16 µg/mL.

With C=C[C@@H]1COC[C@H](c2ccc(-n3cc4cc(-c5cc(CCC[C@H](C)N)cc(Cl)c5F)[nH]c4nc3=O)cc2)N1 [Compound 374] as the molecule, how does the MIC [1] read?
Its MIC is greater than 16 µg/mL.

What about the MIC [2] of the same molecule?
The MIC was greater than 16 µg/mL.

How did the MIC [1] turn out when C[C@H](N)CCCc1cc(Cl)c(F)c(-c2cc3cn(-c4ccc(CNCC[C@@H](CN)NC(=N)N)cc4)c(=O)nc3[nH]2)c1 [Compound 375] was run?
Its MIC is less than 16 µg/mL.

What about the MIC [2] of the same molecule?
Its MIC is less than 16 µg/mL.

How did the MIC [1] turn out when C[C@H](N)CCCc1cc(OC(F)(F)F)c(F)c(-c2cc3cn(-c4ccc(CNCC[C@@H](CN)NC(=N)N)cc4)c(=O)nc3[nH]2)c1 [Compound 376] was run?
The MIC was less than 16 µg/mL.

What about the MIC [2] of the same molecule?
Its MIC is less than 16 µg/mL.

Which results are given for N=C(N)NCC[C@H](CO)NCc1ccc(-n2cc3cc(-c4cc(CCC[C@@H](N)CO)cc(Cl)c4F)[nH]c3nc2=O)cc1 [Compound 377]?
MIC [1]: < 16 µg/mL; MIC [2]: < 16 µg/mL
